Patent US20090270338A1, “DIARYL-CYCLYLALKYL DERIVATIVES AS CALCIUM CHANNEL BLOCKERS” (priority 2008, published 2009)

Assays:
Human Cav2.2 channels = molecular target: T1, Human Cav2.2 channels (Homo sapiens, UniProt Q00975); experiment: Fluorescent assay for Cav2.2 channels using potassium depolarization (Table 2, In Vitro Activity, Cav 2.2 Activity); type: cell-based; details: for inhibition at 10 µM: read-out: % Inh at 10 μM; for inhibition at 30 µM: read-out: % Inh at 30 μM; for IC50: 30 mM K
T1 construct: expressed in transfected cells
T1 sequence (Q00975 whole entry): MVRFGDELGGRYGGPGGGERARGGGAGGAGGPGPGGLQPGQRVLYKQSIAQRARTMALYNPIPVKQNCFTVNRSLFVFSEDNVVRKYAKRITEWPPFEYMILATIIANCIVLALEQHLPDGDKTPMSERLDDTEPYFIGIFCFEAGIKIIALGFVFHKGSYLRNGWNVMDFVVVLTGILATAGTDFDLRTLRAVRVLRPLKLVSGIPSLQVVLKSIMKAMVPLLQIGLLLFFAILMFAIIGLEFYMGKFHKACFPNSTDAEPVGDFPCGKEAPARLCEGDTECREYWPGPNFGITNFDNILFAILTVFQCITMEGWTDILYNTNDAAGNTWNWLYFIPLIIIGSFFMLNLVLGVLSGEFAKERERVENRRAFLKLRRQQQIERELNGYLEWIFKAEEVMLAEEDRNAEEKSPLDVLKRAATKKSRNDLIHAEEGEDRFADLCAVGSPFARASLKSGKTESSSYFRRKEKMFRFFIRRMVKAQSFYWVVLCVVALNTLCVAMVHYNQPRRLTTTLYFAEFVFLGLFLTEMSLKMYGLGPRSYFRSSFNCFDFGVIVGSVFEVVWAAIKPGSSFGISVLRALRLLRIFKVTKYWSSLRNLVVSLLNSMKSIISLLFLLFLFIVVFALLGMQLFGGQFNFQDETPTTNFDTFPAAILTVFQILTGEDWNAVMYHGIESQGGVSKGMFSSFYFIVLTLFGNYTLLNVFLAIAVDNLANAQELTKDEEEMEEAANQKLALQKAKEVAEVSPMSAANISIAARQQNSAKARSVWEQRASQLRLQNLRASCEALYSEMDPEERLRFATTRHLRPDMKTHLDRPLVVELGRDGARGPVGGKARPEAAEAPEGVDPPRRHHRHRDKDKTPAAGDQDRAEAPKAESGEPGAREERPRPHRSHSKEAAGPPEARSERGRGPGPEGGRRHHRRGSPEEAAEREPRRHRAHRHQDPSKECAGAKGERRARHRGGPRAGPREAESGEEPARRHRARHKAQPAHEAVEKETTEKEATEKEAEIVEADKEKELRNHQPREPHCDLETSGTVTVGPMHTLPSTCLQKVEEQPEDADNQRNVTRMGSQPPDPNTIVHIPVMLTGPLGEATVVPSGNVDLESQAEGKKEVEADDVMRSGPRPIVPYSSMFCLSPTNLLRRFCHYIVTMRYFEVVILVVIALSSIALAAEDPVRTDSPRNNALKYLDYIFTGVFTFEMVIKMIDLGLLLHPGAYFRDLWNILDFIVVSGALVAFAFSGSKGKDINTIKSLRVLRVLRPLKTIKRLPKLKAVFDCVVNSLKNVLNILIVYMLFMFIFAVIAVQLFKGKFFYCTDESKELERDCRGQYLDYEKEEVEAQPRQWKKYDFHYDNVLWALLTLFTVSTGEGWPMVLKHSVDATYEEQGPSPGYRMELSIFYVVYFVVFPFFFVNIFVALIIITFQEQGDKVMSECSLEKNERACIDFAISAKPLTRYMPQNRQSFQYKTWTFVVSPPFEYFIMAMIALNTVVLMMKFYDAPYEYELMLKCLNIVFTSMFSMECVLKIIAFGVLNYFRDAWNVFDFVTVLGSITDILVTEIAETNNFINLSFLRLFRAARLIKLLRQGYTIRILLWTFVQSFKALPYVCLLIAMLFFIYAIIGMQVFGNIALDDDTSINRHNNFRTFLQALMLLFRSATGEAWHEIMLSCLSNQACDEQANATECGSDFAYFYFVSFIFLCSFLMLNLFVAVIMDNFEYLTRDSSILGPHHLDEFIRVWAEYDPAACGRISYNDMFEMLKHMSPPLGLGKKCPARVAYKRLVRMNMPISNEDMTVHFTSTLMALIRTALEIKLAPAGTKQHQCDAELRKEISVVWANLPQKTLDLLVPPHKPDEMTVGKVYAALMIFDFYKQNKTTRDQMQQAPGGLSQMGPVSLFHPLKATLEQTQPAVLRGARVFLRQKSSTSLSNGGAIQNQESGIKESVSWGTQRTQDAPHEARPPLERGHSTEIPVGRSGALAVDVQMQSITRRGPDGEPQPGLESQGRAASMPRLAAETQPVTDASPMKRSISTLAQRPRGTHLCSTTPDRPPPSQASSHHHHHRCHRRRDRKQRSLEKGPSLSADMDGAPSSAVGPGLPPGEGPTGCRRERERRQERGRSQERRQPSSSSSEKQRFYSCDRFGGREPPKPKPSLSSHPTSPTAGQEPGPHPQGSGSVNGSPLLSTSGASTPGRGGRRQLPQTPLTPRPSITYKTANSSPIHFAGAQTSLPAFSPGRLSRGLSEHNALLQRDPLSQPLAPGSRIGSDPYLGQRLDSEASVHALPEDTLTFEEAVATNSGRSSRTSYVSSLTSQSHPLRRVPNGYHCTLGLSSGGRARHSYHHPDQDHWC
T1 sequence (P54289 25-1103 partner): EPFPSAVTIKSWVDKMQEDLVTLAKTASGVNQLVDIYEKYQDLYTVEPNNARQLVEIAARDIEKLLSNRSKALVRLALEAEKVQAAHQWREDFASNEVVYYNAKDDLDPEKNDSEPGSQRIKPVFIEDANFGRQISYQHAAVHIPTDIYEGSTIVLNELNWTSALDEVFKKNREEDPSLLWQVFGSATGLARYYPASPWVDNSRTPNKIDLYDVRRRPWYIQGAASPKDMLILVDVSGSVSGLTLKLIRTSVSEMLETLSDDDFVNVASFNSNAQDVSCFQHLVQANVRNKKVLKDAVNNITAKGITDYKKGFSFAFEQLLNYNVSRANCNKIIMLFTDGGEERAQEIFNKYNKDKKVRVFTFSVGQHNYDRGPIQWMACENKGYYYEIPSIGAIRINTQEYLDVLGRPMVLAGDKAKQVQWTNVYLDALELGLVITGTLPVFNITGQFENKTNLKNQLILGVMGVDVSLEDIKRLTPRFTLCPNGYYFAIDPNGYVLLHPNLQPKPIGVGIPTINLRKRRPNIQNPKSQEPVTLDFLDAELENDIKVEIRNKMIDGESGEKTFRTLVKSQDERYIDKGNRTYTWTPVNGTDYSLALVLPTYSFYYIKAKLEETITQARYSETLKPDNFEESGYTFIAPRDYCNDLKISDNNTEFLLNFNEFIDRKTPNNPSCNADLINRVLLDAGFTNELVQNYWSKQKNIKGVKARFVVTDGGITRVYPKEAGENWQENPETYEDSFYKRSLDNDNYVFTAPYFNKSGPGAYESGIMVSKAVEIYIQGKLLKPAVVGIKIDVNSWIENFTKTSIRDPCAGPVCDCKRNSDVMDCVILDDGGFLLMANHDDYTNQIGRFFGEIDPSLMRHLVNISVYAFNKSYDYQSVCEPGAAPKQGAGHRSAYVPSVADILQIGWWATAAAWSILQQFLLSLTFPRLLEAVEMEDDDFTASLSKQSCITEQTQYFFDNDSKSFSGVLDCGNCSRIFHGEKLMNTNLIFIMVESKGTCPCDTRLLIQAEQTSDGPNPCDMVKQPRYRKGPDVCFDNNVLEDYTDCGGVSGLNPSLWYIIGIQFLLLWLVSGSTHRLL
T1 sequence (P54284 whole entry partner): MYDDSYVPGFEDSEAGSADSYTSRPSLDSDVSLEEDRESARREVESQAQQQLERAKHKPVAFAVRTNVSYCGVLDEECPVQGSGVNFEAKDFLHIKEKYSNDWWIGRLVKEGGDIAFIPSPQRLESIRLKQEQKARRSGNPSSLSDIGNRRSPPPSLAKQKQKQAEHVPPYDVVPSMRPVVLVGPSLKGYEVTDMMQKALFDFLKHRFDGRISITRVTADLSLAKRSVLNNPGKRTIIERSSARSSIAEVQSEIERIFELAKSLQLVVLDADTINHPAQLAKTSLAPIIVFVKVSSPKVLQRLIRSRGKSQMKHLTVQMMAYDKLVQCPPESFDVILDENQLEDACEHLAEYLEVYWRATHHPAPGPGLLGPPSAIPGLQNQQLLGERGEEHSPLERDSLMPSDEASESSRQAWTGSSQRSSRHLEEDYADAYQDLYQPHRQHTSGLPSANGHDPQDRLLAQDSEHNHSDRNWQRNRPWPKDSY
From the text: Human Cav2.2 channels were stably expressed in HEK293 cells along with alpha2-delta and beta subunits of voltage-gated calcium channels. An inwardly rectifying potassium channel (Kir2.3) was also expressed in these cells to allow more precise control of the cell membrane potential by extracellular potassium concentration. At low bath potassium concentration, the membrane potential is relatively negative, and is depolarized as the bath potassium concentration is raised. In this way, the bath potassium concentration can be used to regulate the voltage-dependent conformations of the channels. Compounds are incubated with cells in the presence of low (4 mM) potassium or elevated (12, 25 or 30 mM) potassium to determine the affinity for compound block of resting (closed) channels at 4 mM potassium or affinity for block of open and inactivated channels at 12, 25 or 30 mM potassium. After the incubation period, Cav2.2 channel opening is triggered by addition of higher concentration of potassium (70 mM final concentration) to further depolarize the cell. The degree of state-dependent block can be estimated from the inhibitory potency of compounds after incubation in different potassium concentrations.
Calcium influx through Cav2.2 channels is determined using a calcium sensitive fluorescent dye in combination with a fluorescent plate reader. Fluorescent changes were measured with either a VIPR (Aurora Instruments) or FLIPR (Molecular Devices) plate reader.
1. Seed cells in Poly-D-Lysine Coated 96 or 384-well plate and keep in a 37° C.-10% CO2 incubator overnight 2. Remove media, wash cells with 0.2 mL (96-well plate) or 0.05 mL (384-well plate) Dulbecco's Phosphate Buffered Saline (D-PBS) with calcium & magnesium (Invitrogen; 14040) 3. Add 0.1 mL (96-well plate) or 0.05 mL (384-well plate) of 4 μM fluor-4 (Molecular Probes; F-14202) and 0.02% Pluronic acid (Molecular Probes; P-3000) prepared in D-PBS with calcium & magnesium (Invitrogen; 14040) supplemented with 10 mM Glucose & 10 mM Hepes/NaOH; pH 7.4 4. Incubate in the dark at 25° C. for 60-70 min 5. Remove dye, wash cells with 0.1 mL (96-well plate) or 0.06 mL (384-well plate) of 4, 12, 25, or 30 mM Potassium Pre-polarization Buffer (PPB) 6. Add 0.1 mL (96-well plate) or 0.03 mL (384-well plate) of 4, 12, 25, 30 mM PPB with or without test compound 7. Incubate in the dark at 25° C. for 30 min 8. Read cell plate on VIPR instrument, Excitation=480 nm, Emission=535 nm 9. With VIPR continuously reading, add 0.1 mL (96-well plate) or 0.03 mL (384-well plate) of Depolarization Buffer (DB), which is 2× the final assay concentration, to the cell plate.

[1] = tested on: T-type over L-type channels; details: cited from earlier work

Molecule | inhibition at 10 µM (Human Cav2.2 channels) | inhibition at 30 µM (Human Cav2.2 channels) | fold selective for T-type over L-type channels [1] | % Inh at 10 μM (Human Cav2.2 channels) | % Inh at 30 μM (Human Cav2.2 channels) | IC50 (Human Cav2.2 channels)
Cc1cc(CNC(=O)C2(NC(=O)CC(c3ccccc3)c3ccccc3)CCCCC2)no1 [Compound 20, 1-(3,3-diphenylpropanamido)-N-((5-methylisoxazol-3-yl)methyl)cyclohexanecarboxamide] | 71% | 86% | – | – | – | –
COCC(=O)O[C@]1(CCN(C)CCCc2nc3ccccc3[nH]2)CCc2cc(F)ccc2[C@@H]1C(C)C [Mibefradil] | – | – | 10-30 fold | – | – | –
3,3-diphenyl-N-(1-(4-phenylpiperazine- 1-carbonyl)cyclohexyl)propanamide [Compound 5] | – | – | – | 92% | 84% | 380 nM
O=C(CC(c1ccccc1)c1ccccc1)NC1(C(=O)NCc2ccc(F)cc2)CCCCC1 [Compound 8, 1-(3,3-diphenylpropanamido)-N-(4-fluorobenzyl)cyclohexanecarboxamide] | 99% | 102% | – | – | – | 190 nM
Cc1ccccc1C(CC(=O)NC1(C(=O)N2CCN(C(C)(C)C)CC2)CCCCC1)c1ccccc1C [Compound 2, N-(1-(4-tert-butylpiperazine-1-carbonyl)cyclohexyl)-3,3-dio-tolylpropanamide] | 67% | 92% | – | – | – | –
O=C(CC(c1ccccc1)c1ccccc1)NC1(C(=O)N2CCN(c3ccc(Cl)cc3)CC2)CCCCC1 [Compound 11, N-(1-(4-(4-chlorophenyl)piperazine-1-carbonyl)cyclohexyl)-3,3-diphenylpropanamide] | 93% | 101% | – | – | – | 690 nM
Cc1cnccc1CNC(=O)C1(NC(=O)CC(c2ccccc2)c2ccccc2)CCCCC1 [Compound 21, 1-(3,3-diphenylpropanamido)-N-((3-methylpyridin-4-yl)methyl)cyclohexanecarboxamide] | 14% | 51% | – | – | – | –
O=C(CC(c1ccccc1)c1ccccc1)NC1(C(=O)N2CCN(c3ccc(C(F)(F)F)cc3)CC2)CCCCC1 [Compound 13, 3,3-diphenyl-N-(1-(4-(4-(trifluoromethyl)phenyl)piperazine-1-carbonyl)cyclohexyl)propanamide] | 96% | 95% | – | – | – | 590 nM
Cc1ccnc(N2CCN(C(=O)C3(NC(=O)CC(c4ccccc4)c4ccccc4)CCCCC3)CC2)c1 [Compound 16, N-(1-(4-(4-methylpyridin-2-yl)piperazine-1-carbonyl)cyclohexyl)-3,3-diphenylpropanamide] | 81% | 85% | – | – | – | 2750 nM
COc1ccc(CNC(=O)C2(NC(=O)CC(c3ccccc3)c3ccccc3)CCCCC2)cc1 [Compound 9, 1-(3,3-diphenylpropanamido)-N-(4-methoxybenzyl)cyclohexane carboxamide] | 97% | 102% | – | – | – | 170 nM
N-(1-(4-(4-fluorophenyl)piperazine-1- carbonyl)cyclohexyl)-3,3- diphenylpropanamide [Compound 6] | – | – | – | 99% | 100% | 280 nM
O=C(CC(c1ccccc1)c1ccccc1)NC1(C(=O)NCc2ccc(F)cc2F)CCCCC1 [Compound 10, N-(2,4-difluorobenzyl)-1-(3,3-diphenylpropanamido)cyclohexanecarboxamide] | 96% | 101% | – | – | – | 430 nM
Cc1ccc(N2CCN(C(=O)C3(NC(=O)CC(c4ccccc4)c4ccccc4)CCCCC3)CC2)cc1C [Compound 12, N-(1-(4-(3,4-dimethylphenyl)piperazine-1-carbonyl)cyclohexyl)-3,3-diphenylpropanamide] | 95% | 98% | – | – | – | 370 nM
Cc1cccnc1CNC(=O)C1(NC(=O)CC(c2ccccc2)c2ccccc2)CCCCC1 [Compound 23, 1-(3,3-diphenylpropanamido)-N-((3-methylpyridin-2-yl)methyl)cyclohexanecarboxamide] | 81% | 88% | – | – | – | –
Cc1ccccc1C(CC(=O)NC1(C(=O)N2CCN(c3ccccc3)CC2)CCCCC1)c1ccccc1C [Compound 3, N-(1-(4-phenylpiperazine-1-carbonyl)cyclohexyl)-3,3-dio-tolylpropanamide] | 95% | 96% | – | – | – | 440 nM
O=C(CC(c1ccccc1)c1ccccc1)NC1(C(=O)N2CCN(c3ccccc3)CC2)CCCCC1 [Compound 4, 3,3-diphenyl-N-(1-(4-phenylpiperazine-1-carbonyl)cyclohexyl)propanamide] | 80% | 90% | – | – | – | 340 nM
O=C(CC(c1ccccc1)c1ccccc1)NC1(C(=O)NCc2nccs2)CCCCC1 [Compound 22, 1-(3,3-diphenylpropanamido)-N-(thiazol-2-ylmethyl)cyclohexane carboxamide] | 55% | 77% | – | – | – | –
Cc1cnc(CNC(=O)C2(NC(=O)CC(c3ccccc3)c3ccccc3)CCCCC2)cn1 [Compound 19, 1-(3,3-diphenylpropanamido)-N-((5-methylpyrazin-2-yl)methyl)cyclohexanecarboxamide] | 62% | 93% | – | – | – | –
O=C(CC(c1ccccc1)c1ccccc1)NC1(C(=O)NCc2ccc(O)cc2)CCCCC1 [Compound 18, 1-(3,3-diphenylpropanamido)-N-(4-hydroxybenzyl)cyclohexane carboxamide] | 87% | 97% | – | – | – | –
CS(=O)(=O)c1ccc(CNC(=O)C2(NC(=O)CC(c3ccccc3)c3ccccc3)CCCCC2)cc1 [Compound 17, 1-(3,3-diphenylpropanamido)-N-(4-(methylsulfonyl)benzyl)cyclohexane carboxamide] | 86% | 96% | – | – | – | –
CC(C)(C)N1CCN(C(=O)C2(NC(=O)CC(c3ccccc3)c3ccccc3)CCCCC2)CC1 [Compound 1, N-(1-(4-tert-butylpiperazine-1-carbonyl)cyclohexyl)-3,3-diphenylpropanamide] | 42% | 65% | – | – | – | –
O=C(CC(c1ccccc1)c1ccccc1)NC1(C(=O)N2CCN(c3cccc(F)c3)CC2)CCCCC1 [Compound 15, N-(1-(4-(3-fluorophenyl)piperazine-1-carbonyl)cyclohexyl)-3,3-diphenylpropanamide] | 72% | 81% | – | – | – | 330 nM
O=C(CC(c1ccccc1)c1ccccc1)NC1(C(=O)NCc2cccc(C(F)(F)F)c2)CCCCC1 [Compound 7, 1-(3,3-diphenylpropanamido)-N-(3-(trifluoromethyl)benzyl)cyclohexanecar-boxamide] | 99% | 102% | – | – | – | 190 nM
O=C(CC(c1ccccc1)c1ccccc1)NC1(C(=O)N2CCN(c3ccc(F)cc3F)CC2)CCCCC1 [Compound 14, N-(1-(4-(2,4-difluorophenyl)piperazine-1-carbonyl)cyclohexyl)-3,3-diphenylpropanamide] | 81% | 86% | – | – | – | 320 nM
